≈ marks a conversion by molar mass, not a printed value.
Experiments:
J774 macrophages = experiment: Resazurin Macrophage J774 Viability Assay; format: cell-based; settings: Mus musculus, 12 point concentration range 10 μM to 0.5 nM, n = 4 replicates, mean of 3 independent experiments, 72 hour incubation, read-out: IC50 (2)
[1] = Rodent pharmacokinetics study; format: in vivo, Sprague-Dawley rats; settings: rat; for half-life: male, Sprague-Dawley, plasma, elimination phase half-life; for i.v. AUC: intravenous 1 mg/kg; for Bioavail, F: tentative oral bioavailability, F=AUC(p.o.)×Dose(i.v.)/AUC(i.v.)×Dose(p.o.); for p.o. AUC: oral 5 mg/kg in 0.5% CMC/0.1% Tween-80 (HMC-C-01-A in 2% dimethylacetamide/20% hydroxypropyl-β-cyclodextrin)
Experimental: Absorption and metabolic stability were studied using an in vivo pharmacokinetics assay.
Three male Sprague-Dawley rats, aged 8-12 weeks, were dosed with test compounds administered either orally or intravenously (dose level of 1 mg/kg body weight intravenous or 5 mg/kg body weight orally). Test compounds were formulated in 0.5% carboxymethylcellulose (CMC)/0.1% Tween-80 for administration via the oral route, or in 5% DMSO/10% solutol in saline for administration via the intravenous route. For compound HMC-C-01-A the oral administration was formulated in 2% dimethylacetamide/20% hydroxypropyl-β-cyclodextrin in water. Animals were given free access to food throughout the study except for fasting overnight and until 2 hours post dose on the day of dosing.
Blood samples were taken from the retro-orbital plexus at the following time points and placed in microtubes containing 20% K2EDTA solution:
Oral Dosing: predose; 0.25, 0.5, 1, 2, 4, 6, 8, and 24 hours post dose.
Intravenous Dosing: predose; 0.08, 0.25, 0.5, 1, 2, 4, 8, and 24 hours post dose.
Blood samples were centrifuged to obtain plasma, which was transferred to a separate container and frozen at −20° C.
For analysis, samples were thawed at room temperature and prepared by protein precipitation with acetonitrile spiked with internal standard (500 ng/mL glipizide) in the ratio 1:4 with plasma. The samples were then vortexed for 5 minutes and centrifuged for 10 minutes at 20,600×g at 4° C. 100 μL of the supernatant was collected for analysis. The standard samples were prepared similarly, after spiking blank rat plasma samples with 10 μL of analyte.
The pharmacokinetic parameters for the test compounds were calculated by Phoenix WinNonlin version 6.3 (Pharsight Corp, CA) using standard non-compartmental methods. Peak plasma concentrations (Cmax) and time of the peak plasma concentration (Tmax) were the observed values. The area under the plasma concentration-time curve (AUC) was determined by use of the linear trapezoidal rule up to the last measurable concentration (AUClast) and thereafter by extrapolation of the terminal elimination phase to infinity (AUCinf). The terminal elimination rate constant (kel) was determined by regression analysis of the linear terminal portion of the log plasma concentration-time curve. The elimination phase half-life (t1/2) was calculated as 0.693/kel.

[2] = Aqueous (FaSSIF) solubility; format: physicochemical; settings: fasted state simulated intestinal fluid (FaSSIF); for solubility at 16 h: kinetic from dmso stock, pH 6.5, three replicates, read-out: Solubility (1); for solubility: pH 6.8, two replicates, read-out: Solubility (2)
Experimental: Solubility was measured by equilibration of the compound in fasted state simulated intestinal fluid (FaSSIF) and quantified by high-performance liquid chromatography (HPLC).
Aqueous solubility was measured by equilibration of compounds with fasted state simulated intestinal fluid (FaSSIF) and quantified spectrophotometrically.
FaSSIF was prepared as described below:
Preparation of blank FaSSIF: 0.21 g of sodium hydroxide (NaOH) pellets, 1.97 g of dihydrogen sodium phosphate (NaH2PO4.2H2O) and 3.09 g of sodium chloride (NaCl) were dissolved in 400 mL of deionised water. […]
Preparation of FaSSIF: 0.056 g of SIF Powder (containing sodium taurocholate and lecithin) (Phares AG) was dissolved in 25 mL of blank FaSSIF and stirred until the powder was completely dissolved. The solution was allowed to stand for 2 hours during which it became opalescent; it was used within 24 hours. The final solution composition was characterised as follows: • Sodium taurocholate: 3 mM • Lecithin: 0.75 mM • Osmolarity: 270±10 mOsmol • pH: 6.5
The optical density was measured at the end of the incubation period for test compounds and a reference used to determine solubility. In brief, two samples were prepared for each determination: a reference sample consisting of a stock solution of test compound in DMSO diluted in system solution (a phosphate free, low absorption buffer) and propanol; and a test sample (prepared in triplicate) consisting of 0.5 mL FaSSIF spiked with test compound at 0.2 mM. Each sample was incubated at room temperature for 16 hours with constant shaking at 250 rpm. At the end of the incubation period, 0.3 mL of each sample was filtered through a pION filter plate (PION, Woburn Mass.), diluted 1:1 with propanol and scanned using UV spectrophotometry at λmax ([…]) using a Spectra Max Plus—Version 2.1000 (Molecular Devices, Sunnyvale, Calif.), with μSOL Explorer solubility determination software (pION, Woburn, Mass.).
FaSSIF solubility was calculated using the following formula:
[formula] wherein: • “OD” is the optical density; • “Cr” is the concentration of the reference (33.4 μM); and • “molecular weight” is for the test compound (e.g., 381.44 for ABD735).

SMILES | IC50 (J774 macrophages) [nM] | half-life [1] [h] | i.v. AUC [1] [ng·min/mL] | Bioavail, F [1] [%] | solubility at 16 h [2] [µg/mL] | p.o. AUC [1] [ng·h/mL] | solubility [2] [µg/mL]
Cc1cc(S(=O)(=O)NC2CCC(C)(O)CC2)ccc1-c1ccc(F)cc1F (single isomer, unassigned) [REF001, reference compound] | 50 | 7.2 | 963 | 50 | 50 (≈ 126 µM) | – | –
Cc1cc(S(=O)(=O)N[C@H]2CC[C@H](O)CC2)ccc1-c1ccc(F)cc1F [ABD735] | – | 3.8 | 1081 | 83 | 20 (≈ 52.4 µM) | – | –
O=S(=O)(N[C@H]1CC[C@H](O)CC1)c1ccc(-c2ncc(Cl)cc2Cl)cc1 [ABD836, reference compound] | – | 5.3 | 2142 | 55 | 30 (≈ 74.8 µM) | 98.8 | –
C[C@]1(O)CC[C@@H](NS(=O)(=O)c2ccc(-c3ccc(F)cc3F)cc2)CC1 [ABD899, reference compound] | – | 10.8 | 2133 | 50 | 60 (≈ 157 µM) | – | 130 (≈ 341 µM)
C[C@]1(O)CC[C@H](NS(=O)(=O)c2ccc(-c3ccc(F)cc3F)cc2)CC1 [ABD900, reference compound] | – | – | – | – | – | – | 120 (≈ 315 µM)
C[C@]1(O)CC[C@H](NS(=O)(=O)c2ccc(-c3ccc(Cl)cc3C#N)cc2)CC1 [HMC-C-01-A, 4′-Chloro-2′-cyano-N-((1r,4r)-4-hydroxy-4-methylcyclohexyl)biphenyl-4-sulfonamide] | 1890 | 6.2 | 900 | 89 | 60 (≈ 148 µM) | 66.7 | –
C[C@]1(O)CC[C@@H](NS(=O)(=O)c2ccc(-c3ccc(Cl)cc3C#N)cc2)CC1 [HMC-C-01-B, 4′-Chloro-2′-cyano-N-((1s,4s)-4-hydroxy-4-methylcyclohexyl)-[1,1′-biphenyl]-4-sulfonamide] | 160 | 5.7 | 1539 | 67 | – | 85.3 | 80 (≈ 198 µM)
C[C@]1(O)CC[C@H](NS(=O)(=O)c2ccc(-c3ccc(F)cc3C(F)(F)F)cc2)CC1 [HMC-C-02-A, 4′-Fluoro-N-((1r,4r)-4-hydroxy-4-methylcyclohexyl)-2′-(trifluoromethyl)biphenyl-4-sulfonamide] | 14700 | 3.2 | 546 | 39 | 40 (≈ 92.7 µM) | 17.8 | –
C[C@]1(O)CC[C@@H](NS(=O)(=O)c2ccc(-c3ccc(F)cc3C(F)(F)F)cc2)CC1 [HMC-C-02-B, 4′-Fluoro-N-((1s,4s)-4-hydroxy-4-methylcyclohexyl)-2′-(trifluoromethyl)-[1,1′-biphenyl]-4-sulfonamide] | 1740 | – | – | – | – | – | 70 (≈ 162 µM)
C[C@]1(O)CC[C@H](NS(=O)(=O)c2ccc(-c3c(F)cc(F)cc3F)cc2)CC1 [HMC-C-03-A, 2′,4′,6′-Trifluoro-N-((1r,4r)-4-hydroxy-4-methylcyclohexyl)biphenyl-4-sulfonamide] | 410 | 2.4 | 1427 | 55 | 30 (≈ 75.1 µM) | 65.2 | –
C[C@]1(O)CC[C@H](NS(=O)(=O)c2ccc(-c3ccc(F)cc3F)c(F)c2)CC1 [HMC-C-04-A, 2,2′,4′-Trifluoro-N-((1r,4r)-4-hydroxy-4-methylcyclohexyl)-[1,1′-biphenyl]-4-sulfonamide] | 500 | – | – | – | – | – | 80 (≈ 200 µM)
C[C@]1(O)CC[C@H](NS(=O)(=O)c2ccc(-c3ncc(Cl)cc3Cl)c(F)c2)CC1 [HMC-N-04-A, 4-(3,5-Dichloropyridin-2-yl)-3-fluoro-N-((1r,4r)-4-hydroxy-4-methylcyclohexyl)benzenesulfonamide] | – | 2.9 | 1279 | 66 | 60 (≈ 138 µM) | 70 | –

Reference: patent publication US9624167B2, “N-(4-hydroxy-4-methyl-cyclohexyl)-4-phenyl-benzenesulfonamides and N-(4-hydroxy-4-methyl-cyclohexyl)-4-(2-pyridyl)benzenesulfonamides and their therapeutic use” (PIMCO 2664 LIMITED, priority 2013, dated 2017)
